# Assays:
# [1] = Bioavailability of palonosetron as ocular drops vs. intravenous administration; format: in vivo, Beagle dogs
# Protocol: Experiment 1. Bioavailability of Palonosetron as Ocular Drops Vs. Intravenous Administration
# Bioavailability of palonosetron as ocular drops at the dose of 30 μg/kg was compared to 10 μg/kg intravenous (i.v.) palonosetron in Beagle dogs (n=6). The study was a crossover study with 7 days washout period between the treatment periods. The animals were fasted overnight before dosing by withdrawing the remaining feed (if any) at least 12 h before dosing. On dosing days food was offered approximately at 4 h after dosing (after the 4 h blood sampling).
# Palonosetron 30 μg/kg eye drops prepared according to Formulation Example 1 were administered in the eye using a micropipette in an amount of 10 μl/kg (approximately half volume in each eye).
# Palonosetron 10 μg/kg intravenous dose was administered in cephalic vein in slow i.v. bolus dosed within 30 seconds.
# Blood samples were collected into K2EDTA tubes over a 48 h period after each treatment at the following time points: predose, 5 min, 10 min, 20 min, 30 min, 45 min, 1 h, 1.5 h, 2 h, 4 h, 6 h, 8 h, 12 h, 24 h and 48 h post administration. Aliquots of plasma were prepared and stored frozen until analysis. Palonosetron concentration in plasma was determined using Liquid chromatography-triple quadrupole mass spectrometry. The lower limit of quantification for palonosetron in dog plasma was 0.02 ng/ml.
# [2] = tested on: cisplatin-induced nausea and vomiting; assay: Efficacy of palonosetron eye drops in cisplatin-induced nausea and vomiting model; format: in vivo, Beagle dogs; details: n=6; for vomiting episodes: T0-T420 min
# Protocol: Experiment 3. Efficacy of Palonosetron Eye Drops in Cisplatin-Induced Nausea and Vomiting Model Methods: Six non-naive adult male Beagle dogs were intravenously administered (2 ml/min) cisplatin at 18 mg/m^2 body surface over 20 min. Then, 45 min after the end of the infusion, the dogs received eye drops prepared according to Formulation Example 1 at 30 or 120 μg/kg of palonosetron or its vehicle (0.9% saline, 2% povidone) in a cross-over design. Then, the following parameters were recorded by blinded observers over 15 min periods from TO (end of the infusion of cisplatin) to 420 min (T420) after the end of the infusion of cisplatin: vomiting episodes and nausea-like behaviours including salivation, exaggerated swallowing motions, lip licking, lethargy, restlessness, and turning behaviour signalling that vomiting is imminent. In addition, a visual analogue scale (VAS) from 0 to 100 mm was used to assess the severity of the dogs' nausea-like behaviours (where a score of 0 mm=no nausea and a score of 100 mm=worst possible nausea).
# [3] = 30 μg/kg ocular drops (Formulation Example 1), Beagle dogs
smiles,measurement,setting,value
O=C1c2cccc3c2[C@H](CCC3)CN1[C@@H]1CN2CCC1CC2 [Palonosetron],absorption,[1]; [3],fast absorption comparable to intravenous administration
same,elimination phase,[1]; [3],extended elimination phase
same,eye irritation,[1]; [3],No significant eye irritation was seen
same,systemic exposure,[1]; [3],good systemic exposure
same,bioavailability,"[1]; dog, other: ocular drops (administered in the eye), 30 μg/kg ocular drops (Formulation Example 1) vs. 10 μg/kg i.v., Beagle dogs (n=6), plasma",65.6%
same,vomiting episodes,[2]; 30 μg/kg eye drops (Formulation Example 1) 45 min after cisplatin 18 mg/m^2 i.v.,1 vomiting episode in 2 dogs overall
same,VAS AUC (nausea),"[2]; 30 μg/kg eye drops (Formulation Example 1) after cisplatin 18 mg/m^2, mean±SEM",320±268 mm*m
same,vomiting episodes,[2]; 120 μg/kg eye drops (Formulation Example 1) 45 min after cisplatin 18 mg/m^2 i.v.,inhibited vomiting totally
same,VAS AUC (nausea),"[2]; 120 μg/kg eye drops (Formulation Example 1) after cisplatin 18 mg/m^2, mean±SEM",0±0 mm*m
